From patent US20160130278A1 (TAISHO PHARMACEUTICAL CO., LTD, priority 2013, published 2016)

Target: T1, human type 1 glycine transporter (GlyT1) (Homo sapiens, UniProt P48067)
T1 construct: T98G cells (glioma cells) expressing human type 1 glycine transporter (GlyT1) were used
T1 sequence (P48067 1-706): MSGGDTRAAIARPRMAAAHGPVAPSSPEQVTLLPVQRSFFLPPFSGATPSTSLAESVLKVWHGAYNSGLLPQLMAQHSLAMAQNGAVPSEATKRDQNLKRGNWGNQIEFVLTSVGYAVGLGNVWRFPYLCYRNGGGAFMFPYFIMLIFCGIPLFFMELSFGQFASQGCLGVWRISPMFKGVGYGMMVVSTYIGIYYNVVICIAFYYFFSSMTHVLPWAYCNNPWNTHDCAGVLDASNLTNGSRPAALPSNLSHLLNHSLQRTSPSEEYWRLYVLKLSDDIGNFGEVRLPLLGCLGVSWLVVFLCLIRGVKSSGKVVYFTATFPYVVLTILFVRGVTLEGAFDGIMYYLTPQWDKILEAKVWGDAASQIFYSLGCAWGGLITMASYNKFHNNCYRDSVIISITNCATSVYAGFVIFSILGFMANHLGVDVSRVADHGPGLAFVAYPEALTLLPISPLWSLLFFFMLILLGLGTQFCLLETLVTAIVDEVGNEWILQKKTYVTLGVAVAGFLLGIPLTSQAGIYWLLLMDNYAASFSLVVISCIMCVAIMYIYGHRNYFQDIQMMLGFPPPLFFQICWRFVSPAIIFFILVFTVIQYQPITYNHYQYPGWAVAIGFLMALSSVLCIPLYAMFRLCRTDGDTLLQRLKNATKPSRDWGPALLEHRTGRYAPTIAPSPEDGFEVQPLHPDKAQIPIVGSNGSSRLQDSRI
Assay: Glycine uptake inhibition experiment ([3H]glycine uptake)
Format: cell-based
Conditions: GlyT1
Summary of the method: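 T98G glioma cells expressing human GlyT1 were pretreated 10 min with compound in HEPES buffer pH 7.4 (0.2% BSA), then incubated with compound plus 250 nM final [3H]glycine for 15 min at room temperature. Intracellular radioactivity was counted after NaOH lysis; 10 μM ALX5407 defined non-specific uptake. IC50 came from 10^−9–10^−5 M curves.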

IC50 [µM]	SMILES
1	O=C(NC(c1cccc(F)c1Cl)[C@]1(O)CC[C@@H](F)CC1)c1c(Cl)cccc1Cl (single isomer, unassigned) [Compound 254, 2,6-dichloro-N-[(2-chloro-3-fluorophenyl)(cis-4-fluoro-1-hydroxycyclohexyl)methyl]benzamide]
0.12	O=C(NC(c1cccc(F)c1Cl)[C@]1(O)CC[C@@H](F)CC1)c1nccc2ccccc12 (single isomer, unassigned) [Compound 255, N-[(2-chloro-3-fluorophenyl)(cis-4-fluoro-1-hydroxycyclohexyl)methyl]isoquinoline-1-carboxamidea]
1	O=C(NC(c1cccc(F)c1Cl)[C@]1(O)CC[C@@H](F)CC1)c1cnnc2ccccc12 (single isomer, unassigned) [Compound 259, N-[(2-chloro-3-fluorophenyl)(cis-4-fluoro-1-hydroxycyclohexyl)methyl]cinnoline-4-carboxamide]
7.4	Cc1nc2ccccn2c1C(=O)NC(c1cccc(F)c1Cl)[C@]1(O)CC[C@@H](F)CC1 (single isomer, unassigned) [Compound 261, N-[(2-chloro-3-fluorophenyl)(cis-4-fluoro-1-hydroxycyclohexyl)methyl]-2-methylimidazo[1,2-a]pyridine-3-carboxamide]
8.8	O=C(NC(c1cccc(F)c1Cl)[C@]1(O)CC[C@@H](F)CC1)c1c(Cl)nc2ccccn12 (single isomer, unassigned) [Compound 262, 2-chloro-N-[(2-chloro-3-fluorophenyl)(cis-4-fluoro-1-hydroxycyclohexyl)methyl]imidazo[1,2-a]pyridine-3-carboxamide]
0.91	O=C(NC(c1cccc(F)c1Cl)[C@]1(O)CC[C@@H](F)CC1)c1ccc(Cl)cc1Cl (single isomer, unassigned) [Compound 264, 2,4-dichloro-N-[(2-chloro-3-fluorophenyl)(cis-4-fluoro-1-hydroxycyclohexyl)methyl]benzamide]
1.9	Cc1ccccc1C(=O)NC(c1cccc(F)c1Cl)[C@]1(O)CC[C@@H](F)CC1 (single isomer, unassigned) [Compound 267, N-[(2-chloro-3-fluorophenyl)(cis-4-fluoro-1-hydroxycyclohexyl)methyl]-2-methylbenzamide]
1.7	O=C(NC(c1cccc(F)c1Cl)[C@]1(O)CC[C@@H](F)CC1)c1cccnc1-n1cccn1 (single isomer, unassigned) [Compound 268, N-[(2-chloro-3-fluorophenyl)(cis-4-fluoro-1-hydroxycyclohexyl)methyl]-2-(1H-pyrazol-1-yl)pyridine-3-carboxamide]
2.4	O=C(NC(c1cccc(F)c1Cl)[C@]1(O)CC[C@@H](F)CC1)c1ccccc1-n1cnnn1 (single isomer, unassigned) [Compound 270, N-[(2-chloro-3-fluorophenyl)(cis-4-fluoro-1-hydroxycyclohexyl)methyl]-2-(1H-tetrazol-1-yl)benzamide]
2.5	Cn1nc(C(F)(F)F)cc1C(=O)NC(c1cccc(F)c1Cl)[C@]1(O)CC[C@@H](F)CC1 (single isomer, unassigned) [Compound 272, N-[(2-chloro-3-fluorophenyl)(cis-4-fluoro-1-hydroxycyclohexyl)methyl]-1-methyl-3-(trifluoromethyl)-1H-pyrazole-5-carboxamide]
1.6	O=C(NC(c1cccc(F)c1Cl)[C@]1(O)CC[C@@H](F)CC1)c1cccc2ccncc12 (single isomer, unassigned) [Compound 275, N-[(2-chloro-3-fluorophenyl)(cis-4-fluoro-1-hydroxycyclohexyl)methyl]isoquinoline-8-carboxamide]
1.6	O=C(NC(c1cccc(F)c1Cl)[C@]1(O)CC[C@@H](F)CC1)c1ccccc1C(F)(F)F (single isomer, unassigned) [Compound 276, N-[(2-chloro-3-fluorophenyl)(cis-4-fluoro-1-hydroxycyclohexyl)methyl]-2-(trifluoromethyl)benzamide]

Continued, molecule first:

SMILES	IC50 [µM]
O=C(NC(c1cccc(F)c1Cl)[C@]1(O)CC[C@@H](F)CC1)c1cc(Cl)cc(Cl)c1 (single isomer, unassigned) [Compound 253, 3,5-dichloro-N-[(2-chloro-3-fluorophenyl)(cis-4-fluoro-1-hydroxycyclohexyl)methyl]benzamide]	8.3
O=C(NC(c1cccc(F)c1Cl)[C@]1(O)CC[C@@H](F)CC1)c1nccc2ncccc12 (single isomer, unassigned) [Compound 256, N-[(2-chloro-3-fluorophenyl)(cis-4-fluoro-1-hydroxycyclohexyl)methyl]-1,6-naphthyridin-5-carboxamide]	2.1
O=C(NC(c1ccnc(Cl)c1)[C@]1(O)CC[C@@H](F)CC1)c1nccc(C(F)(F)F)c1Cl (single isomer, unassigned) [Compound 257]	0.44
O=C(NC(c1ccnc(Cl)c1)[C@]1(O)CC[C@@H](F)CC1)c1nccc(C(F)(F)F)c1Cl (single isomer, unassigned) [Compound 258]	3
Cn1nc2c(c1C(=O)NC(c1cccc(F)c1Cl)[C@]1(O)CC[C@@H](F)CC1)CCCC2 (single isomer, unassigned) [Compound 260, N-[(2-chloro-3-fluorophenyl)(cis-4-fluoro-1-hydroxycyclohexyl)methyl]-2-methyl-4,5,6,7-tetrahydro-2H-indazol-3-carboxamide]	1.7
Cc1noc2nc(C3CC3)cc(C(=O)NC(c3cccc(F)c3Cl)[C@]3(O)CC[C@@H](F)CC3)c12 (single isomer, unassigned) [Compound 263, N-[(2-chloro-3-fluorophenyl)(cis-4-fluoro-1-hydroxycyclohexyl)methyl]-6-cyclopropyl-3-methyl[1,2]oxazolo[5,4-b]pyridine-4-carboxamide]	0.99
O=C(NC(c1cccnc1)[C@]1(O)CC[C@@H](F)CC1)c1nccc(C(F)(F)F)c1Cl (single isomer, unassigned) [Compound 265, 3-chloro-N-[(cis-4-fluoro-1-hydroxycyclohexyl)(pyridin-3-yl)methyl]-4-(trifluoromethyl)pyridine-2-carboxamide]	0.89
O=C(NC(c1cccnc1)[C@]1(O)CC[C@@H](F)CC1)c1nccc(C(F)(F)F)c1Cl (single isomer, unassigned) [Compound 266, 3-chloro-N-[(cis-4-fluoro-1-hydroxycyclohexyl)(pyridin-3-yl)methyl]-4-(trifluoromethyl)pyridine-2-carboxamide]	1.6
Cc1cc(C(=O)NC(c2cccc(F)c2Cl)[C@]2(O)CC[C@@H](F)CC2)c2cnn(C(C)C)c2n1 (single isomer, unassigned) [Compound 269, N-[(2-chloro-3-fluorophenyl)(cis-4-fluoro-1-hydroxycyclohexyl)methyl]-6-methyl-1-(propan-2-yl)-1H-pyrazolo[3,4-b]pyridine-4-carboxamide]	1.7
O=C(NC(c1cccc(F)c1Cl)[C@]1(O)CC[C@@H](F)CC1)c1nsc(Cl)c1Cl (single isomer, unassigned) [Compound 271, 4,5-dichloro-N-[(2-chloro-3-fluorophenyl)(cis-4-fluoro-1-hydroxycyclohexyl)methyl]-1,2-thiazol-3-carboxamide]	1.1
O=C(NC(c1cccnc1Cl)[C@]1(O)CC[C@@H](F)CC1)c1nccc(C(F)(F)F)c1Cl (single isomer, unassigned) [Compound 273, 3-chloro-N-[(2-chloropyridin-3-yl)(cis-4-fluoro-1-hydroxycyclohexyl)methyl]-4-(trifluoromethyl)pyridine-2-carboxamide]	0.33
O=C(NC(c1cccc(Cl)n1)[C@]1(O)CC[C@@H](F)CC1)c1nccc(C(F)(F)F)c1Cl (single isomer, unassigned) [Compound 274, 3-chloro-N-[(6-chloropyridin-2-yl)(cis-4-fluoro-1-hydroxycyclohexyl)methyl]-4-(trifluoromethyl)pyridine-2-carboxamide]	0.077
O=C(NC(c1ccc(Cl)nc1)C1(O)CCC(F)(F)CC1)c1nccc(C(F)(F)F)c1Cl (single isomer, unassigned) [Compound 277, 3-chloro-N-[(6-chloropyridin-3-yl)(4,4-difluoro-1-hydroxycyclohexyl)methyl]-4-(trifluoromethyl)pyridine-2-carboxamide]	0.64
O=C(NC(c1ccc(Cl)nc1)C1(O)CCC(F)(F)CC1)c1nccc(C(F)(F)F)c1Cl (single isomer, unassigned) [Compound 278, 3-chloro-N-[(6-chloropyridin-3-yl)(4,4-difluoro-1-hydroxycyclohexyl)methyl]-4-(trifluoromethyl)pyridine-2-carboxamide]	2.7
